Measured values as given in PubChem BioAssay (NCI).
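Interpolation was linear, between the two tested concentrations surrounding the appropriate level; five concentrations were tested over 48 hours in 96-well plates. Abbreviation: GI50, concentration required for 50% inhibition of growth. Definition used: TGI = concentration required for complete inhibition of growth.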 Where a SMILES comes first, the peptide text is derived from it. The star is where a group is joined. Boc = CC(C)(C)OC(=O)*; OSu = O=C1CCC(=O)N1O*

What was measured:
Test in all cases: growth of human tumour cells (NCI), 48 h
[1] = tested on: CAKI-1 renal
[2] = tested on: DU-145 prostate
[3] = tested on: HOP-92 NSCLC
[4] = tested on: MDA-MB-435
[5] = tested on: MOLT-4 leukemia
[6] = tested on: NCI-H226 lung
[7] = tested on: NCI-H23 lung
[8] = tested on: OVCAR-3 ovarian
[9] = tested on: SK-MEL-5 melanoma
[10] = tested on: CCRF-CEM leukemia

Row | Structure (SMILES) | TGI [1] [µM] | TGI [2] [µM] | TGI [3] [µM] | TGI [4] [µM] | TGI [5] [µM] | TGI [6] [µM] | TGI [7] [µM] | TGI [8] [µM] | TGI [9] [µM] | TGI [10] [µM] | GI50 [1] [nM] | GI50 [10] [nM] | GI50 [2] [nM] | GI50 [3] [nM] | GI50 [4] [nM] | GI50 [5] [nM] | GI50 [6] [nM] | GI50 [7] [nM] | GI50 [8] [nM] | GI50 [9] [nM]
1 | CC(NC(=O)C(NC(=O)OC(C)(C)C)C(C)C)C(=O)NCC(=O)ON1C(=O)CCC1=O (stereo not drawn) (Boc-Val-Ala-Gly-OSu; configuration not given here) | > 100 | > 100 | > 100 | > 100 | > 100 | > 100 | > 100 | > 100 | > 100 | – | – | – | – | – | – | – | – | – | – | –
2 | C[C@H](CCC(=O)NCCS(=O)(=O)O)[C@H]1CC[C@H]2[C@@H]3CC[C@@H]4C[C@H](O)CC[C@]4(C)[C@H]3CC[C@]12C | > 100 | > 100 | > 100 | > 100 | > 100 | > 100 | > 100 | > 100 | > 100 | > 100 | – | – | – | – | – | – | – | – | – | –
3 | O=C(c1ccccc1)N1CCN(C(=S)N(C(=O)c2ccccc2)c2ccccc2)C1=S | 7.5 | 10.6 | 20 | 12.2 | – | 32 | 11.6 | 15.4 | 26.5 | > 25.8 | – | – | – | – | – | – | – | – | – | –
4 | Oc1ccc(-c2nc(-c3cccnc3)c(-c3ccc(Cl)cc3)[nH]2)cc1O | 46.7 | 90.8 | – | 30.3 | > 100 | 37.1 | 23.9 | 14.5 | 27.6 | > 100 | – | – | – | – | – | – | – | – | – | –
5 | Nn1c(COc2cccc(OCc3n[nH]c(=S)n3N)c2)n[nH]c1=S | > 100 | > 100 | > 100 | > 100 | 21.7 | > 100 | > 100 | > 100 | – | > 100 | – | – | – | – | – | – | – | – | – | –
6 | COC(=O)NCCc1[nH]nc2c1C(=O)C=C(N1CCOCC1)C2=O | > 100 | > 100 | > 100 | > 100 | > 100 | > 100 | > 100 | > 100 | > 100 | > 100 | – | – | – | – | – | – | – | – | – | –
7 | Nc1ncnc2c1nnn2C1C=CC(COS(N)(=O)=O)C1 (centres undefined) | 12.2 | > 100 | – | 41.3 | > 100 | 42.1 | 18.2 | 96.1 | 15.9 | > 100 | – | – | – | – | – | – | – | – | – | –
8 | CC(=O)N=C1N(/C=C2\C(=O)Oc3ccccc3C2=O)C(=O)/C(=C/c2ccc(OC(C)=O)cc2)N1C | > 100 | > 100 | – | > 100 | > 100 | > 100 | > 100 | > 100 | > 100 | > 100 | – | – | – | – | – | – | – | – | – | –
9 | O=C(/C=C/c1ccc(O)cc1)c1ccc2c(c1)OCO2 | 35.3 | 76.7 | 58.8 | 69.5 | 52.3 | 34.1 | 39.2 | 41 | 29.4 | 5.69 | – | – | – | – | – | – | – | – | – | –
10 | COC(=O)c1c(O)ccc2c1c1c(n2Cc2ccccc2Cl)C(=O)c2ccccc2C1=O | 27.4 | 29 | 29.8 | 25.2 | 56.1 | 36.6 | 29.8 | 21.8 | 26.4 | 43.6 | – | – | – | – | – | – | – | – | – | –
11 | Cc1c(Cl)nc(Nc2nc3ccccc3[nH]2)nc1Cl | 71.9 | > 100 | 18.6 | > 100 | > 100 | > 100 | > 100 | – | > 100 | – | – | – | – | – | – | – | – | – | – | –
12 | O=C(Nc1cccc(-n2ccc3c(NC(=O)c4ccccc4)nccc32)c1)Nc1cc(C(F)(F)F)cc(C(F)(F)F)c1 | 4.32 | 7.97 | 3.95 | 3.21 | 36 | 16.4 | > 50 | 3.18 | 1.95 | > 50 | 1530 | 1760 | 1680 | 853 | 1230 | 1920 | 1660 | 1960 | 1280 | 946
13 | CN(C)CCNC(=O)c1cccc2c(NCCN(C)C)c3ccccc3nc12 | 12.7 | 28.2 | 17.8 | 7.58 | 6.29 | 3.66 | 7.03 | 7.63 | 13.6 | > 100 | – | – | – | – | – | – | – | – | – | –
14 | CCN(CC)CC1CCCCN1CC(=O)N1c2ccccc2NC(=O)CC1C (centres undefined) | > 100 | > 100 | > 100 | > 100 | > 100 | > 100 | > 100 | > 100 | > 100 | > 100 | – | – | – | – | – | – | – | – | – | –
15 | BrCCCCCOc1ccc(-c2c3ccccc3c(-c3ccc(OCCCCCBr)cc3)c3ccccc23)cc1 | > 100 | > 100 | – | > 100 | > 100 | > 100 | – | – | > 100 | > 100 | – | – | – | – | – | – | – | – | – | –
16 | O=C1CCC2(CC1CC(Sc1ccccc1)Sc1ccccc1)OCCO2 (centres undefined) | > 100 | > 100 | > 100 | > 100 | 66.3 | > 100 | > 100 | > 100 | 38 | > 100 | – | – | – | – | – | – | – | – | – | –
17 | COC(=O)CCC(=O)NC1=C(NCc2ccccc2)C(=O)c2ccccc2C1=O | 72.8 | > 100 | 48.2 | 34.9 | > 100 | > 100 | 64.6 | 33.3 | 24.9 | > 100 | – | – | – | – | – | – | – | – | – | –
18 | S=C(NC1=NCC(CN2CCN(c3ccccc3)CC2)O1)Nc1ccccc1 (centres undefined) | > 100 | > 100 | > 100 | > 100 | > 100 | > 100 | > 100 | > 100 | > 100 | > 100 | – | – | – | – | – | – | – | – | – | –
19 | Nc1nc(Cl)c(N)c(NCC2(CO)CC(OCc3ccccc3)C2)n1 (centres undefined) | > 100 | > 100 | > 100 | > 100 | > 100 | > 100 | > 100 | > 100 | > 100 | > 100 | – | – | – | – | – | – | – | – | – | –
20 | COC(=O)CCC(=O)NC1=C(Nc2ccc(OC)cc2)C(=O)c2ccccc2C1=O | 40.2 | 26.9 | 27 | 3.53 | 65.8 | 35.3 | 22.7 | 12.6 | 3.57 | > 85.2 | – | – | – | – | – | – | – | – | – | –
